The record followed here is patent US20230129359A1, “MUSCARINIC RECEPTOR 4 ANTAGONISTS AND METHODS OF USE” (Neurocrine Biosciences, Inc., priority 2020, published 2023).

For one test, the target named is T1, human M4 receptor (Homo sapiens, UniProt P08173).
T1 construct: expressed in transfected cells; host or cells: CHO cells
T1 sequence (P08173 1-479): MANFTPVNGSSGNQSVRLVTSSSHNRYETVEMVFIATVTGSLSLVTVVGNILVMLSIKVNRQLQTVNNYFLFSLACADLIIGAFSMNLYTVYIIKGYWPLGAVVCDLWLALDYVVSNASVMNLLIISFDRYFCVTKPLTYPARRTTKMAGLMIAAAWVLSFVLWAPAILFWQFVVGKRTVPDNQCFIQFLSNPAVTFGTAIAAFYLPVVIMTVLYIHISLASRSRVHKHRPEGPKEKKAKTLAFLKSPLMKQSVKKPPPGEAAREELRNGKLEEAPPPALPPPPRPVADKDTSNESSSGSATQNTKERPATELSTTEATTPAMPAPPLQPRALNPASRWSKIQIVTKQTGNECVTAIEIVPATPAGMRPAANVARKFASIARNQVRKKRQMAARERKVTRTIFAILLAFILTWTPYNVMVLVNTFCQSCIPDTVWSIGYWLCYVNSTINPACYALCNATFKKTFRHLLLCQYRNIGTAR
The experiment in a line: Radioligand ([3H]N-methylscopolamine) binding assay, membranes from CHO cells expressing human M4 receptor. The conditions noted are these: Ki against human M4 receptor; membranes from CHO cells; tritiated N-methylscopolamine 1.5 nM; read-out: K. The method in brief:
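Competition binding used CHO-cell membranes expressing human M4 with 1.5 nM [3H]N-methylscopolamine and twelve compound concentrations ([…]). Incubation was 90 minutes at 37 °C in 50 mM HEPES, 100 mM NaCl, 5 mM MgCl2, 1 mM EDTA, pH 7.4. Bound ligand was collected by filtration onto PEI-treated glass fibre for Ki.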

Test [1] has as its target T2, Human muscarinic 4 receptor (CHRM4) (Homo sapiens, UniProt P08173).
T2 construct: host or cells: CHO-K1
T2 sequence (P08173 1-479): T1 sequence (P08173 1-479)
Description: Fluorescence-based functional calcium assay, antagonism of acetylcholine response in CHO-K1 cells with Gα16. Format: cell-based. The conditions noted are these: inhibition of the acetylcholine response. As for the experimental part: Functional antagonism of acetylcholine responses was evaluated using a fluorescence-based functional calcium assay. Acetylcholine binding to the muscarinic receptors activates G-proteins. Human muscarinic 4 receptor (CHRM4) was stably expressed in CHO-K1 cells and a promiscuous Gα16 construct is co-transfected. This cell line was commercially available through PerkinElmer (product number ES-213-A). Following ligand binding, activation of the Ga16 subunit induces the release of calcium from the endoplasmic reticulum. Prior to ligand screening, the receptor-expressing cells were loaded with a fluorescent calcium indicator, FLIPR Calcium 6 (Molecular Devices). Antagonist activity of the compounds was determined as the EC50 for inhibition of the acetylcholine response. The assay buffer used was a 1:1 solution of buffer (1× Hank's balanced salt solution plus 20 mM HEPES buffer, pH 7.4) and cell medium (Ham's F-12, 10% FBS, 0.4 mg/mL Geneticin, 0.25 mg/mL Zeocin). The day before the assay, 4×10^3 cells per well were seeded into an assay plate in 25 μL of medium and allowed to incubate overnight at 37° C. and 5% CO2. The following day, 25 μL of Calcium 6 dye was added to each well and incubated for two additional hours at 37° C. and 5% CO2. The test compound (a dose-response of eleven concentrations ranging from […]) was added to the cells to a final DMSO concentration of 0.56% v/v. One hour later, acetylcholine to a final concentration of 100 nM was added by the instrument and calcium flux-dependent fluorescence measured in real time. The concentration of acetylcholine used was that which stimulates 80% of the maximal response.

Consider `C[C@@H]1CN(c2ncc(C(F)(F)F)cn2)C[C@H](C)N1C(=O)NC1CC2(C1)CN(Cc1ccccc1)C2` [Compound 96, (2R,6S)—N-{2-Benzyl-2-azaspiro[3.3]heptan-6-yl}-2,6-dimethyl-4-[5-(trifluoromethyl)pyrimidin-2-yl]piperazine-1-carboxamide], for which the Ki on human M4 receptor is < 10 nM. Besides, the IC50 in test [1] was < 10 nM. `C[C@@H]1CN(c2cnc(C(F)(F)F)cn2)[C@@H](C)CN1C(=O)OC1CC2(C1)CN(Cc1ccccc1)C2` [Compound 106, 2-benzyl-2-azaspiro[3.3]heptan-6-yl (2R,5S)-2,5-dimethyl-4-[5-(trifluoromethyl)pyrazin-2-yl]piperazine-1-carboxylate]: at human M4 receptor, the Ki lay within 10 to 100 nM. Further, in test [1], the IC50 was < 10 nM. For the compound `C[C@@H]1CN(c2cnc(C(F)(F)F)cn2)C[C@H](C)N1C(=O)OC1CC2(C1)CN(Cc1ccccc1)C2` [Compound 141, 2-benzyl-2-azaspiro[3.3]heptan-6-yl (2R,6S)-2,6-dimethyl-4-[5-(trifluoromethyl)pyrazin-2-yl]piperazine-1-carboxylate], the Ki on human M4 receptor was in the range of 10 to 100 nM. Further, in test [1], the IC50 is < 10 nM. As for `C[C@@H]1CN(c2ncc(C(F)(F)F)cn2)C[C@H](C)N1C(=O)OC1CC2(C1)CN(Cc1ccccc1)C2` [Compound 147, 2-Benzyl-2-azaspiro[3.3]heptan-6-yl (2R,6S)-2,6-dimethyl-4-[5-(trifluoromethyl)pyrimidin-2-yl]piperazine-1-carboxylate], the Ki at human M4 receptor is < 10 nM. Further, the IC50 in test [1] is < 10 nM. In the case of `C[C@@H]1CN(c2ncc(C(F)(F)F)cn2)[C@@H](C)CN1C(=O)OC1CC2(C1)CN(Cc1ccc(S(C)(=O)=O)cc1)C2` [Compound 501, 2-[(4-methanesulfonylphenyl)methyl]-2-azaspiro[3.3]heptan-6-yl (2R,56S)-2,5-dimethyl-4-[5-(trifluoromethyl)pyrimidin-2-yl]piperazine-1-carboxylate], on human M4 receptor, the Ki lay in the range of 100 to 1000 nM. Same read-out and setting: the figure for `C[C@@H]1CN(c2cnc(C(F)(F)F)cn2)[C@@H](C)CN1C(=O)OC1CC2(C1)CN(Cc1ccc(S(C)(=O)=O)cc1)C2` [Compound 503, 2-[(4-methanesulfonylphenyl)methyl]-2-azaspiro[3.3]heptan-6-yl (2R,5S)-2,5-dimethyl-4-[5-(trifluoromethyl)pyrazin-2-yl]piperazine-1-carboxylate] is 100 to 1000 nM; for `CCCc1cnc(N2C[C@@H](C)N(C(=O)OC3CC4(C3)CN(Cc3ccccc3)C4)[C@@H](C)C2)nc1` [Compound 504, 2-benzyl-2-azaspiro[3.3]heptan-6-yl (2R,6S)-2,6-dimethyl-4-(5-propylpyrimidin-2-yl)piperazine-1-carboxylate] it is < 10 nM.

For the compound `CC(C)c1cnc(N2C[C@@H](C)N(C(=O)OC3CC4(C3)CN(Cc3ccccc3)C4)[C@@H](C)C2)nc1` [Compound 505, 2-benzyl-2-azaspiro[3.3]heptan-6-yl (2R,6S)-2,6-dimethyl-4-[5-(rpopan-2-yl)pyrimidin-2-yl]piperazine-1-carboxylate], the Ki at human M4 receptor is < 10 nM. Turning to `C[C@@H]1CN(c2ncc(C3CC3)cn2)C[C@H](C)N1C(=O)OC1CC2(C1)CN(Cc1ccccc1)C2` [Compound 506, 2-benzyl-2-azaspiro[3.3]heptan-6-yl (2R,6S)-4-(5-cyclopropylpyrimidin-2-yl)-2,6-dimethylpiperazine-1-carboxylate], on human M4 receptor, the Ki is < 10 nM.

`C#Cc1cnc(N2C[C@@H](C)N(C(=O)OC3CC4(C3)CN(Cc3ccccc3)C4)[C@@H](C)C2)nc1` [Compound 508, 2-benzyl-2-azaspiro[3.3]heptan-6-yl (2R,6S)-4-(5-ethynylpyrimidin-2-yl)-2,6-dimethylpiperazine-1-carboxylate]: on human M4 receptor, the Ki is 10 to 100 nM. As for `C[C@@H]1CN(c2ccc(C(F)(F)F)cc2)C[C@H](C)N1C(=O)OC1CC2(C1)CN(Cc1ccccc1)C2` [Compound 514, 2-benzyl-2-azaspiro[3.3]heptan-6-yl (2R,6S)-2,6-dimethyl-4-[4-(trifluoromethyl)phenyl]pipera-zine-1-carboxylate], the Ki on human M4 receptor was < 10 nM. For the compound `COc1ccc(N2C[C@@H](C)N(C(=O)OC3CC4(C3)CN(Cc3ccccc3)C4)[C@@H](C)C2)cc1` [Compound 524, 2-benzyl-2-azaspiro[3.3]heptan-6-yl (2R,6S)-4-(4-methoxyphenyl)-2,6-dimethylpiperazine-1-carboxylate], the Ki on human M4 receptor lay in the range of 100 to 1000 nM. For `Cc1cc(N2C[C@@H](C)N(C(=O)OC3CC4(C3)CN(Cc3ccccc3)C4)[C@@H](C)C2)ccc1F` [Compound 525, 2-benzyl-2-azaspiro[3.3]heptan-6-yl (2R,6S)-4-(4-fluoro-3-methylphenyl)-2,6-dimethylpiperazine-1-carboxylate], the Ki on human M4 receptor lay within 10 to 100 nM. In the case of `COc1cc(N2C[C@@H](C)N(C(=O)OC3CC4(C3)CN(Cc3ccccc3)C4)[C@@H](C)C2)ccc1C#N` [Compound 526, 2-benzyl-2-azaspiro[3.3]heptan-6-yl (2R,6S)-4-(4-cyano-3-methoxyphenyl)-2,6-dimethylpiperazine-1-carboxylate], the Ki on human M4 receptor lay in the range of 100 to 1000 nM. In the case of `C[C@@H]1CN(c2ccc(C(F)(F)F)cc2)[C@@H](C)CN1C(=O)OC1CC2(C1)CN(Cc1ccccc1)C2` [Compound 527, 2-benzyl-2-azaspiro[3.3]heptan-6-yl (2R,5S)-2,5-dimethyl-4-[4-(trifluoromethyl)phenyl]pipera-zine-1-carboxylate], on human M4 receptor, the Ki was < 10 nM. Take `C[C@@H]1CN(c2ccc(C(F)(F)F)cc2)CCN1C(=O)OC1CC2(C1)CN(Cc1ccccc1)C2` [Compound 528, 2-benzyl-2-azaspiro[3.3]heptan-6-yl (2R)-2-methyl-4-[4-(trifluoromethyl)phenyl]pipera-zine-1-carboxylate]: on human M4 receptor, the Ki was in the range of 10 to 100 nM. As to `C[C@@H]1CN(c2ncc(OCC3CCC3)cn2)C[C@H](C)N1C(=O)OC1CC2(C1)CN(Cc1ccccc1)C2` [Compound 530, 2-benzyl-2-azaspiro[3.3]heptan-6-yl (2R,6S)-4-[5-(cyclobutylmethoxy)pyrimidin-2-yl]-2,6-dimethylpiperazine-1-carboxylate], the Ki on human M4 receptor was < 10 nM.

What is called IC50 is the concentration at which inhibition is half-maximal.
